Values quoted from earlier work, collected in patent US6717012B2, “Antioxidant nitroxides and nitrones as therapeutic agents” (priority 2001, dated 2004).

How the values were obtained:
[1] = test system: cortical and retinal neuron cultures
[2] = target: PCP and MK-801 binding sites of the NMDA receptor (Homo sapiens, UniProt Q05586); conditions: postmortem human frontal cortex, at therapeutic concentrations
[3] = target: T1, 5-hydroxytryptamine 5-HT3 receptors (Homo sapiens, UniProt P46098)
T1 sequence (P46098 24-478): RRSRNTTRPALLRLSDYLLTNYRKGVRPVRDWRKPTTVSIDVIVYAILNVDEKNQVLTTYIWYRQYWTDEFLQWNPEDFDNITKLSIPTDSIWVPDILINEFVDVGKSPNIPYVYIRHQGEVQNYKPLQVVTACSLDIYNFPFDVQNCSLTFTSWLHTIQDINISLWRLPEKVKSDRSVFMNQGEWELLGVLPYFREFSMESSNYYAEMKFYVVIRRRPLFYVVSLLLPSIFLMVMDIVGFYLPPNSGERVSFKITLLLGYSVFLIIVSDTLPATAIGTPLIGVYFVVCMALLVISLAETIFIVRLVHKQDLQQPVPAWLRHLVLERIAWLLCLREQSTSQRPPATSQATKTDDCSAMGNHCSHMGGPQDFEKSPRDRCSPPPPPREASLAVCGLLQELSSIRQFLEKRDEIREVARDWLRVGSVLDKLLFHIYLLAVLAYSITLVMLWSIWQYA

NMDA receptor = NMDA receptor (Homo sapiens, UniProt Q05586)
[4] = test system: nicotinic acetylcholine receptors
[5] = test system: quinolic acid-induced hippocampal damage; conditions: rats
[6] = target: NMDA channel ([3H]dizocilpine binding to brain membranes) (Homo sapiens, UniProt Q05586)
[7] = test system: rats with an experimental painful peripheral neuropathy

Row | Compound | protection from toxicity of glutamate, NMDA and HIV-1 coat protein gp120 [1] | binding to PCP and MK-801 binding sites [2] | block of 5-HT3 receptors [3] | antagonist potency at the NMDA receptor (NMDA receptor) | block of nicotinic acetylcholine receptors [4] | prevention of quinolic acid-induced hippocampal damage [5] | inhibition of [3H]dizocilpine binding [6] | effect on heat hyperalgesia [7]
1 | CC12CC3CC(C)(C1)CC(N)(C3)C2 [Memantine, 1-amino-3,5-dimethyladamantane] | protects | binds | blocks | micromolar antagonist | blocks | prevents | inhibits | 
2 | CC1(C)CC(O)CC(C)(C)N1[O] [4-hydroxy-2,2,6,6-tetramethylpiperidine-1-oxyl] |  |  |  |  |  |  |  | alleviated heat hyperalgesia
